Results taken from BindingDB's records for doi:10.1074/jbc.M110.107094 (Sanford-Burnham Medical Research Institute, 2010).
pIC50: −log10 of the molar value.

Columns and labels:
Test in all cases: Inhibition Assay
Conditions in all cases: 37 °C
[1] = molecular target: 72 kDa type IV collagenase (Homo sapiens, UniProt P08253)
Text: (§1) Inhibition of IC50 using matrix metalloproteinase.

[2] = molecular target: T1, Matrix metalloproteinase-14 [1-20,P8S] (Homo sapiens, UniProt P50281, P8S)
T1 construct: 1-20
Text: as §1

[3] = molecular target: T2, Matrix metalloproteinase-25 (Homo sapiens, UniProt Q9NPA2)
T2 sequence (Q9NPA2 whole entry): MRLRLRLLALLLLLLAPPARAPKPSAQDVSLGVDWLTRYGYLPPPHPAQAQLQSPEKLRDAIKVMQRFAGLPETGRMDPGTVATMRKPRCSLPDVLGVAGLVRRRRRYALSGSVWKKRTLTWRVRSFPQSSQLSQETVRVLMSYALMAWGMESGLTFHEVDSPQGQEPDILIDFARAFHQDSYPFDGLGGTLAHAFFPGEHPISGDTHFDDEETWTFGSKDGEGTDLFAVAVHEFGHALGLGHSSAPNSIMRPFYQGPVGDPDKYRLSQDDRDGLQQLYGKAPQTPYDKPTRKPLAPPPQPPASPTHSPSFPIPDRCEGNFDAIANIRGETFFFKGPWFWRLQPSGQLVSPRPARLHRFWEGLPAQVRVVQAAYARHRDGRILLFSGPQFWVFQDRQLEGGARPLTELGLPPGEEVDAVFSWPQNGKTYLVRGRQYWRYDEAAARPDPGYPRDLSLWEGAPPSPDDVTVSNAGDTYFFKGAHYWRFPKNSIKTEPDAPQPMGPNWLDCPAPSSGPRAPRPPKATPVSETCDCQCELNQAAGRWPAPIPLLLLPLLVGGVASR
Text: as §1

[4] = molecular target: Matrix metalloproteinase-9 (Homo sapiens, UniProt P14780)
Text: as §1

72 kDa type IV collagenase, sequence (P08253 whole entry): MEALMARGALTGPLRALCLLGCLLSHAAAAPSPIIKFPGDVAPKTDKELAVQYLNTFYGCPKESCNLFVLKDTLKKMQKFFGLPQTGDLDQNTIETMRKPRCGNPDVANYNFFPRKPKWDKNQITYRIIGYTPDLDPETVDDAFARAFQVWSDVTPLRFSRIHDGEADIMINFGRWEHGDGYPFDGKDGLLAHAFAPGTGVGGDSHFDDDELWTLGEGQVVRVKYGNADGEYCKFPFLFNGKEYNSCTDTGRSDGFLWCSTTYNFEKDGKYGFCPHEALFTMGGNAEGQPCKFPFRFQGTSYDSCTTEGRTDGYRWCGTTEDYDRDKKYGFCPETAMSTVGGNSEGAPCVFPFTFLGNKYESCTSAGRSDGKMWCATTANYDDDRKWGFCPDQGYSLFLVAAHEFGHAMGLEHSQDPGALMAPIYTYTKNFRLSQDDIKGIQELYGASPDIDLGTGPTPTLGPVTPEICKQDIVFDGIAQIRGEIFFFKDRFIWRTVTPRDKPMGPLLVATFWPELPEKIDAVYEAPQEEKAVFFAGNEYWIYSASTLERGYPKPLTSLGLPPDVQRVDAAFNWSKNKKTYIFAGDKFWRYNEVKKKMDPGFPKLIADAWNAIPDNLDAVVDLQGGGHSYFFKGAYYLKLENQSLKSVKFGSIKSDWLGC
Matrix metalloproteinase-9, sequence (P14780 whole entry): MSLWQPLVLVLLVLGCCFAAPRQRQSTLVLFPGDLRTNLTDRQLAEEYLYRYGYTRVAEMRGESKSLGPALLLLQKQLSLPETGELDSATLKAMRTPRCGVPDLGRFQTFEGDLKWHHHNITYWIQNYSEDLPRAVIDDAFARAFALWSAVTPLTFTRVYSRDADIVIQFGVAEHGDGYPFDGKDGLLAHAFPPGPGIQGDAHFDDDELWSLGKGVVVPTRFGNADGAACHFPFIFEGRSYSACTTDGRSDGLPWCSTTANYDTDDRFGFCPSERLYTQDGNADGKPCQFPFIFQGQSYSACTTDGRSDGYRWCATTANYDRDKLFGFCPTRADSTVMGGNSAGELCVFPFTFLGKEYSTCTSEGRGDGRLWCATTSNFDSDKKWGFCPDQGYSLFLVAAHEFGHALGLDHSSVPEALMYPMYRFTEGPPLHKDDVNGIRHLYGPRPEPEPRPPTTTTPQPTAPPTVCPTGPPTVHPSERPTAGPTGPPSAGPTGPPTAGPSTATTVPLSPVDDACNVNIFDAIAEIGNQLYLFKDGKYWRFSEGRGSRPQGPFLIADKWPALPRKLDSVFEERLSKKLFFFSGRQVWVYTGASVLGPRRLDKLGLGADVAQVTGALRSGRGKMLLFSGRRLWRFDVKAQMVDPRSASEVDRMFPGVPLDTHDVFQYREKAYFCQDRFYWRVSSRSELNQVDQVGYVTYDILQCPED

| pIC50 [1] | pIC50 [2] | pIC50 [3] | pIC50 [4] | Compound |
| --- | --- | --- | --- | --- |
| < 4.00 | < 4.00 | 5.60 | < 4.00 | CCOc1ccc(-c2ccccc2C(=O)NO)cc1 [BI-102C8] |
| 5.72 | 4.96 | 6.05 | < 4.30 | O=C(CCS(=O)(=O)c1ccccc1)NO [BI-92G11] |
